According to patent US10022352B2, “Modulators of ATP-binding cassette transporters” (Vertex Pharmaceuticals Incorporated, priority 2006, dated 2018):
Where two headings read alike, the source gives them in different places.

Legend:
[1] = biological target: ΔF508-CFTR (Homo sapiens (Human), UniProt P13569, DEL508-508); assay: Membrane potential optical assay, identification of correction compounds; assay type: cell-based
Source text: Membrane potential optical methods for assaying ΔF508-CFTR modulation properties of compounds.
The assay utilizes fluorescent voltage sensing dyes to measure changes in membrane potential using a fluorescent plate reader (e.g., FLIPR II, Molecular Devices, Inc.) as a readout for increase in functional ΔF508-CFTR in NIH 3T3 cells. The driving force for the response is the creation of a chloride ion gradient in conjunction with channel activation by a single liquid addition step after the cells have previously been treated with compounds and subsequently loaded with a voltage sensing dye.
Identification of Correction Compounds
To identify small molecules that correct the trafficking defect associated with ΔF508-CFTR; a single-addition HTS assay format was developed. Assay Plates containing cells are incubated for ˜2-4 hours in tissue culture incubator at 37° C., 5% CO2, 90% humidity. Cells are then ready for compound exposure after adhering to the bottom of the assay plates.
The cells were incubated in serum-free medium for 16-24 hrs in tissue culture incubator at 37° C., 5% CO2, 90% humidity in the presence or absence (negative control) of test compound. The cells were subsequently rinsed 3× with Krebs Ringers solution and loaded with a voltage sensing redistribution dye. To activate ΔF508-CFTR, 10 μM forskolin and the CFTR potentiator, genistein (20 μM), were added along with Cl^−-free medium to each well. The addition of Cl^−-free medium promoted Cl^− efflux in response to ΔF508-CFTR activation and the resulting membrane depolarization was optically monitored using voltage sensor dyes.
Bath #1: (in mM) NaCl 160, KCl 4.5, CaCl2 2, MgCl2 1, HEPES 10, pH 7.4 with NaOH.
free bath solution: Chloride salts in Bath Solution #1 are substituted with gluconate salts.
NIH3T3 fibroblasts stably expressing ΔF508-CFTR are used for optical measurements of membrane potential. The cells are maintained at 37° C. in 5% CO2 and 90% humidity in Dulbecco's modified Eagle's medium supplemented with 2 mM glutamine, 10% fetal bovine serum, 1×NEAA, β-ME, 1× pen/strep, and 25 mM HEPES in 175 cm^2 culture flasks. For all optical assays, the cells were seeded at ˜20,000/well in 384-well matrigel-coated plates and cultured for 2 hrs at 37° C. before culturing at 27° C. for 24 hrs. for the potentiator assay. For the correction assays, the cells are cultured at 27° C. or 37° C. with and without compounds for 16-24 hours. Electrophysiological Assays for assaying ΔF508-CFTR modulation properties of compounds.

[2] = Solubility in water; assay type: physicochemical

ΔF508-CFTR, sequence (P13569 other isoform, or with tags, fused parts or gaps del F508-F508): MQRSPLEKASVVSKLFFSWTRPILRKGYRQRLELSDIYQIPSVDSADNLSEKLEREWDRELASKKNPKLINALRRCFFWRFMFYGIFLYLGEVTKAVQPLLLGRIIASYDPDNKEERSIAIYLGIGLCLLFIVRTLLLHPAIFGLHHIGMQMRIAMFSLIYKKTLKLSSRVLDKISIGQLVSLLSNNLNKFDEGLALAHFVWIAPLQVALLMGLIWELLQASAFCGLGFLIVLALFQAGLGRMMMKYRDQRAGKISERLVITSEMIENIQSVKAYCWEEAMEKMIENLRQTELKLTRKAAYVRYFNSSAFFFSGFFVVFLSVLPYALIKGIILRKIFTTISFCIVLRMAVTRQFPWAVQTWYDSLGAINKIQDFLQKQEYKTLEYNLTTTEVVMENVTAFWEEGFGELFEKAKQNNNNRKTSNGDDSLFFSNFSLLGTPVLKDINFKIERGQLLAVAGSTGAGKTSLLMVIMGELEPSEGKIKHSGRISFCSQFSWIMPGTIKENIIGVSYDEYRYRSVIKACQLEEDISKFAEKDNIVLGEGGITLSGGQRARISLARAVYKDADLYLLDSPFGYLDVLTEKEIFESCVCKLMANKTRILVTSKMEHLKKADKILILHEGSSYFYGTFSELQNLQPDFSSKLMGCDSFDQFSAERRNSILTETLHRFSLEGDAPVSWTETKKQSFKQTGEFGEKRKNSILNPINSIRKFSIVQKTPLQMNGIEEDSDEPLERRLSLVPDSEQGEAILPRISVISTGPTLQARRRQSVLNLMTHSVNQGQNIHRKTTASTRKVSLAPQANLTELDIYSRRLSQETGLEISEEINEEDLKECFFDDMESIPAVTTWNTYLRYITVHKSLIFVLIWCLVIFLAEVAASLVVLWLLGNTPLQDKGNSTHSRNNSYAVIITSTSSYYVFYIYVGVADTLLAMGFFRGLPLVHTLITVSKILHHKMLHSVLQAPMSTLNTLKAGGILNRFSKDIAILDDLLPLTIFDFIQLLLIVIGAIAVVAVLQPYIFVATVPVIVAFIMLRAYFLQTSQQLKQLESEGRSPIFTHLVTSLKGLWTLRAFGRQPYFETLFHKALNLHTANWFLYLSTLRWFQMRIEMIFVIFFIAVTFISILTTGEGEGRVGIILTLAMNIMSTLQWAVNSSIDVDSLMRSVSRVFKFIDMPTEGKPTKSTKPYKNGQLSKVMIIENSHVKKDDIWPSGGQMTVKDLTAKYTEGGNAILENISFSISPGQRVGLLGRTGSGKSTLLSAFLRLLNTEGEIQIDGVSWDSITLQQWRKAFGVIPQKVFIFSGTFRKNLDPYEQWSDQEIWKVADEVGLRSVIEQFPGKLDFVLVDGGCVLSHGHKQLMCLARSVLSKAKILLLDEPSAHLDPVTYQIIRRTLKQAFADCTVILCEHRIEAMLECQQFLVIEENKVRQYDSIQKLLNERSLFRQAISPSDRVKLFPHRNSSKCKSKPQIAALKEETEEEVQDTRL

Structure (SMILES): CC(C)(CCO)c1cc2cc(NC(=O)C3(c4ccc5c(c4)OC(F)(F)O5)CC3)c(F)cc2n1C[C@@H](O)CO [Compound 311]
- EC50 ([1]; read-out: Binned EC50): < 2 µM
- Emax ([1]; read-out: Binned Max Efficacy): > 100%
- EC50 ([1]; read-out: EC50): 0.0818 µM
- Emax ([1]; read-out: Max Efficacy): 126%

Structure (SMILES): CC(C)(C)c1cc(C(C)(C)C)c(NC(=O)c2c[nH]c3ccccc3c2=O)cc1O [Compound B, N-(2,4-di-tert-butyl-5-hydroxyphenyl)-4-oxo-1,4-dihydroquinoline-3-carboxamide]
- solubility [2]: < 0.05 µg/mL

Structure (SMILES): CC(C)(CO)c1cc2cc(NC(=O)C3(c4ccc5c(c4)OC(F)(F)O5)CC3)c(F)cc2n1C[C@@H](O)CO [Compound 315]
- EC50 ([1]; read-out: Binned EC50): < 2 µM
- Emax ([1]; read-out: Binned Max Efficacy): > 100%
- EC50 ([1]; read-out: EC50): 0.272 µM
- Emax ([1]; read-out: Max Efficacy): 106%

Structure (SMILES): CC(C)(CCOC[C@@H](O)CO)c1cc2cc(NC(=O)C3(c4ccc5c(c4)OC(F)(F)O5)CC3)c(F)cc2[nH]1 [Compound 316]
- EC50 ([1]; read-out: Binned EC50): < 2 µM
- Emax ([1]; read-out: Binned Max Efficacy): > 100%
- EC50 ([1]; read-out: EC50): 0.285 µM
- Emax ([1]; read-out: Max Efficacy): 126%

Structure (SMILES): COc1ccc(C2(C(=O)Nc3ccc4[nH]c(C(C)(C)C)cc4c3)CC2(C)C)cc1 (stereo not shown) [Compound 317]
- EC50 ([1]; read-out: Binned EC50): 2 to 5 µM
- Emax ([1]; read-out: Binned Max Efficacy): 25 to 100%
- EC50 ([1]; read-out: EC50): 4.53 µM
- Emax ([1]; read-out: Max Efficacy): 65.5%

Structure (SMILES): CC(C)(CO)c1cc2cc(NC(=O)C3(c4ccc5c(c4)OC(F)(F)O5)CC3)c(F)cc2[nH]1 [Compound 320]
- EC50 ([1]; read-out: Binned EC50): 2 to 5 µM
- Emax ([1]; read-out: Binned Max Efficacy): 25 to 100%
- EC50 ([1]; read-out: EC50): 4.32 µM
- Emax ([1]; read-out: Max Efficacy): 94%

Structure (SMILES): CC(C)(C)c1cc2cc(NC(=O)C3(c4ccc5c(c4)CCC5)CC3)ccc2n1C[C@@H](O)CO [Compound 307]
- EC50 ([1]; read-out: Binned EC50): < 2 µM
- Emax ([1]; read-out: Binned Max Efficacy): > 100%
- EC50 ([1]; read-out: EC50): 0.981 µM
- Emax ([1]; read-out: Max Efficacy): 160%

Structure (SMILES): CC(C)(C)c1cc2c(C#N)c(NC(=O)C3(c4ccc5c(c4)OC(F)(F)O5)CC3)ccc2n1CCO [Compound 312]
- EC50 ([1]; read-out: Binned EC50): < 2 µM
- Emax ([1]; read-out: Binned Max Efficacy): > 100%
- EC50 ([1]; read-out: EC50): 0.181 µM
- Emax ([1]; read-out: Max Efficacy): 118%

Structure (SMILES): CC(C)(C)c1cc2cc(NC(=O)C3(c4ccc5c(c4)OCO5)CC3)c(F)cc2n1C[C@@H](O)CO [Compound 310]
- Binned Max Efficacy [1]: +++ (“+++” means >100%)
- Max Efficacy [1]: 120.5%
- EC50 ([1]; read-out: Binned EC50): < 2 µM
- EC50 ([1]; read-out: EC50): 0.16 µM

Structure (SMILES): CC(C)(C)c1cc2c(C#N)c(NC(=O)C3(c4ccc5c(c4)OC(F)(F)O5)CC3)ccc2[nH]1 [Compound 313]
- EC50 ([1]; read-out: Binned EC50): < 2 µM
- Emax ([1]; read-out: Binned Max Efficacy): > 100%
- EC50 ([1]; read-out: EC50): 0.284 µM
- Emax ([1]; read-out: Max Efficacy): 102%

Structure (SMILES): CC(C)(C)c1cc2cc(NC(=O)C3(c4ccc5c(c4)OCO5)CC3)c(F)cc2n1C[C@@H](O)CO [Compound 318]
- EC50 ([1]; read-out: Binned EC50): < 2 µM
- Emax ([1]; read-out: Binned Max Efficacy): > 100%
- EC50 ([1]; read-out: EC50): 0.0659 µM
- Emax ([1]; read-out: Max Efficacy): 132%

Structure (SMILES): CC(C)(C)c1cc2cc(NC(=O)C3(c4ccc(O)c(O)c4)CC3)ccc2n1C[C@@H](O)CO [Compound 321]
- EC50 ([1]; read-out: Binned EC50): < 2 µM
- Emax ([1]; read-out: Binned Max Efficacy): 25 to 100%
- EC50 ([1]; read-out: EC50): 1.81 µM
- Emax ([1]; read-out: Max Efficacy): 76%

Structure (SMILES): CC(C)(CCOC[C@@H](O)CO)c1cc2cc(NC(=O)C3(c4ccc5c(c4)OC(F)(F)O5)CC3)c(F)cc2n1C[C@@H](O)CO [Compound 308]
- EC50 ([1]; read-out: Binned EC50): 2 to 5 µM
- Emax ([1]; read-out: Binned Max Efficacy): > 100%
- EC50 ([1]; read-out: EC50): 3.1 µM
- Emax ([1]; read-out: Max Efficacy): 100%

Structure (SMILES): CC1(C)CCn2c1cc1cc(NC(=O)C3(c4ccc5c(c4)OC(F)(F)O5)CC3)c(F)cc12 [Compound 314]
- EC50 ([1]; read-out: Binned EC50): < 2 µM
- Emax ([1]; read-out: Binned Max Efficacy): > 100%
- EC50 ([1]; read-out: EC50): 0.229 µM
- Emax ([1]; read-out: Max Efficacy): 124%

Structure (SMILES): CN(C)CCn1c(C(C)(C)C)cc2cc(NC(=O)C3(c4ccc5c(c4)OC(F)(F)O5)CC3)c(F)cc21 [Compound 309]
- Binned Max Efficacy [1]: +++ (“+++” means >100%)
- Max Efficacy [1]: 122%
- EC50 ([1]; read-out: Binned EC50): < 2 µM
- EC50 ([1]; read-out: EC50): 0.0381 µM

Structure (SMILES): COc1ccc(C2(C(=O)Nc3ccc4c(c3)cc(C(C)(C)C)n4C[C@@H](O)CO)CC2(C)C)cc1 (stereo partly shown) [Compound 319]
- EC50 ([1]; read-out: Binned EC50): < 2 µM
- Emax ([1]; read-out: Binned Max Efficacy): > 100%
- EC50 ([1]; read-out: EC50): 0.0391 µM
- Emax ([1]; read-out: Max Efficacy): 126%
